The results in this text go back to ChEMBL document CHEMBL1138162, “Phenyl ureas of creatinine as mGluR5 antagonists. A structure-activity relationship study of fenobam analogues” (Bioorg Med Chem Lett, 2006).

For series [1], the target named is Metabotropic glutamate receptor 5 (Homo sapiens, UniProt P41594). Description: Inhibition of glutamate-induced calcium influx in human mGluR5d by FLIPR. It counts as functional.
The target of series [2] is Metabotropic glutamate receptor 5 (Rattus norvegicus, UniProt P31424). Description: Displacement of [3H]MPEP from mGluR5d in rat brain membrane. It counts as cell membranes. (In general: Displacement assays read how much labelled ligand stays bound in the presence of the test substance.)
The species entered for the next series is Rattus norvegicus. Kind of series: Clearance in rat. It counts as ADME, organism-based. The conditions noted are these: in vivo.
The species entered for a further series is Homo sapiens. Description: Clearance in human. It counts as ADME, organism-based. The conditions noted are these: in vivo.

The structures appear in SMILES notation.

Sequence of Metabotropic glutamate receptor 5 (Homo sapiens, UniProt P41594) (P41594 whole entry): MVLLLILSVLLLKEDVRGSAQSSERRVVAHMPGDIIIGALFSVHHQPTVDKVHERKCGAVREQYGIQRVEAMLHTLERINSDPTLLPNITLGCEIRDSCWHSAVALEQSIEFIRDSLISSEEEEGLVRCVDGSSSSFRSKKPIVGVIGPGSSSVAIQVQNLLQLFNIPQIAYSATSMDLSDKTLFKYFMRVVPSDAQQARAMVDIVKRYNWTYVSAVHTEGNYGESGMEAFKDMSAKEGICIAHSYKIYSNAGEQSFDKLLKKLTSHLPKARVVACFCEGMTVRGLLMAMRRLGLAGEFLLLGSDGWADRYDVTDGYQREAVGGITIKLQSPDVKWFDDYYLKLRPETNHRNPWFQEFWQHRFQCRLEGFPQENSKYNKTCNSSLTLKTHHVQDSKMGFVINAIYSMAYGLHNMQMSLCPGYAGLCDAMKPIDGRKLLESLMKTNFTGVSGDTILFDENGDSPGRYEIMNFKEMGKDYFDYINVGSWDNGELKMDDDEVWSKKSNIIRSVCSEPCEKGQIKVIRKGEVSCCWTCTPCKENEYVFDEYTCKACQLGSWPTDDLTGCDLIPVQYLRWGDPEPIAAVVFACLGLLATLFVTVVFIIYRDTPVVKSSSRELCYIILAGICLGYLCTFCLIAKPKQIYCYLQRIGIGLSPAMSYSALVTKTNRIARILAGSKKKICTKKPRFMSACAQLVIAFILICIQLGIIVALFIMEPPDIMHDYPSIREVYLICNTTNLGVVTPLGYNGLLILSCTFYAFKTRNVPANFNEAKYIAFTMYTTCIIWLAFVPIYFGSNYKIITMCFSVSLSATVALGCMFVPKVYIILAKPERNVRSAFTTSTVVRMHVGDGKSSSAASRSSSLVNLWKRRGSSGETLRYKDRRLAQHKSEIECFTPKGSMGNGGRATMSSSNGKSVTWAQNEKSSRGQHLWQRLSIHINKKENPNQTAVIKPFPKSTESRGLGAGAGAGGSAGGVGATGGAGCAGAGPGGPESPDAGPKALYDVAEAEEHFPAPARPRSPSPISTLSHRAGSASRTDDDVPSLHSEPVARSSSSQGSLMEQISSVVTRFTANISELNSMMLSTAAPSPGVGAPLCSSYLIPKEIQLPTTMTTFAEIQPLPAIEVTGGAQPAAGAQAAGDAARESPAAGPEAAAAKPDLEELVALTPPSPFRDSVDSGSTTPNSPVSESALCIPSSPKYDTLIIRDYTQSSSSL
Sequence of Metabotropic glutamate receptor 5 (Rattus norvegicus, UniProt P31424) (P31424 whole entry): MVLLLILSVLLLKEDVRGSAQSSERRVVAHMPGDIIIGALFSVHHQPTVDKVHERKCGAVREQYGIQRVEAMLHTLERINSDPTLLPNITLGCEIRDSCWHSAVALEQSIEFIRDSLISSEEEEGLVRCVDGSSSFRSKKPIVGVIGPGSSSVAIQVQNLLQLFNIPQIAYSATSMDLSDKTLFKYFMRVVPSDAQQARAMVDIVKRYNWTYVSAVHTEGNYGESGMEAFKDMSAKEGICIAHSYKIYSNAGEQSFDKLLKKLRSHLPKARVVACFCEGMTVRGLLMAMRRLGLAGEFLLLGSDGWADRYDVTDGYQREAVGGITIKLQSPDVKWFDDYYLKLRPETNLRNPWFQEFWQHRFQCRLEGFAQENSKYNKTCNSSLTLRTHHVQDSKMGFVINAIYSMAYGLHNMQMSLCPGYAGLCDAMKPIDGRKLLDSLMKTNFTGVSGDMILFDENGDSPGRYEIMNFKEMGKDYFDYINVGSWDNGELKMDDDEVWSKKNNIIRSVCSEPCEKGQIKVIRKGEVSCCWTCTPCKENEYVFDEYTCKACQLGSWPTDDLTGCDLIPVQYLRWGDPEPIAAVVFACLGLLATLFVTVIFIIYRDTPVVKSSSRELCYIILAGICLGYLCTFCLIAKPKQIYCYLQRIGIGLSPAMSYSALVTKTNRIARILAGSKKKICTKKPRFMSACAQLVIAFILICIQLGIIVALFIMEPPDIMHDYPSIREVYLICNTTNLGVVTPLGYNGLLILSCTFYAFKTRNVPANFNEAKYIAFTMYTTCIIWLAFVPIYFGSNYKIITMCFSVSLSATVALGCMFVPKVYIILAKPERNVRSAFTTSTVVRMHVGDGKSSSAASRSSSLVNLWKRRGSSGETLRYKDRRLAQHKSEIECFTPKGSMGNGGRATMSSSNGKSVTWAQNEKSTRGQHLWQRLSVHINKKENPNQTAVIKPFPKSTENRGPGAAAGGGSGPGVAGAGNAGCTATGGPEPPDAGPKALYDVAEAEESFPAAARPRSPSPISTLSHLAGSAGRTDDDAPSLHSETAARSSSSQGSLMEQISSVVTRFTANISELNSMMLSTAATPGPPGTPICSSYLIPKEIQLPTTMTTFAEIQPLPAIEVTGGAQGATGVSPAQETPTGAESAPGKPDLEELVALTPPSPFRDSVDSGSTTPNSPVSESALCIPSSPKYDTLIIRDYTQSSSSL

Take `O=C(NC1=NC(=O)C2CCCN12)Nc1cccc(Cl)c1` (stereo not given): the IC50 is 800 nM in series [1] (read-out: IC50) and 1600 nM in series [2].
As for `O=C(NC1=NC(=O)C2CCCN12)Nc1ccccc1` (stereo not given), in series [1] (read-out: IC50), the IC50 came to 4200 nM.
For `CCN1CC(=O)N=C1NC(=O)Nc1cccc(Cl)c1`, the IC50 in series [1] (read-out: IC50) was found to be 250 nM; in series [2] it was 180 nM.
As for `CN1CCS/C1=N\C(=O)Nc1cccc(Cl)c1`, the results for the IC50 in series [1] (read-out: IC50) and in series [2] were 260 nM and 1200 nM, respectively.
With `CCN1C(NC(=O)Nc2cccc(Cl)c2)=NC(=O)C1C` (stereo not given), the figures for the IC50 in series [1] (read-out: IC50) and in series [2] were 410 nM and 320 nM, respectively.
As for `Cc1cccc(NC(=O)NC2=NC(=O)C3CCCN23)c1C` (stereo not given), the IC50 in series [1] (read-out: IC50) was over 10000 nM.
In the case of `Cc1ccc(C)c(NC(=O)NC2=NC(=O)C3CCCN23)c1` (stereo not given), the IC50 in series [1] (read-out: IC50) was over 10000 nM.
Regarding `CCCCN1CC(=O)N=C1NC(=O)Nc1cccc(Cl)c1`, the IC50 in series [1] (read-out: IC50) amounted to 680 nM; in series [2], 1300 nM.
On the same counts, the results for `CN1C(=O)CN=C1NC(=O)Nc1cccc(Cl)c1` are over 10000 nM and over 10000 nM.
Turning to `Cn1ccnc1NC(=O)Nc1cccc(Cl)c1`, the 50% inhibitory concentration (IC50) in series [1] (read-out: IC50) and in series [2] was over 10000 nM in each case.
Turning to `Cc1ccc(NC(=O)NC2=NC(=O)C3CCCN23)cc1Cl` (stereo not given), the IC50 in series [1] (read-out: IC50) was over 10000 nM.
Still for that read-out and setting: for `Cc1ccccc1NC(=O)NC1=NC(=O)C2CCCN12` (stereo not given) the value was over 10000 nM; for `O=C(NC1=NC(=O)C2CCCN12)Nc1ccc(Cl)cc1` (stereo not given), over 10000 nM; for `COc1cccc(NC(=O)NC2=NC(=O)CN2C)c1`, 2800 nM.
For the compound `Cc1cccc(NC(=O)NC2=NC(=O)CN2C)c1`, the IC50 in series [1] (read-out: IC50) came to 550 nM.
Take `CN1CC(=O)N=C1NC(=O)Nc1cccc(C#N)c1`: the 50% inhibitory concentration (IC50) was 3900 nM in series [1] (read-out: IC50) and 3400 nM in series [2].
Turning to `CN1CC(=O)N=C1NC(=O)Nc1cccc(Br)c1`, the IC50 in series [1] (read-out: IC50) was 380 nM.
In the case of `CN1CC(=O)N=C1NC(=O)Cc1cccc(Cl)c1`, the half-inhibitory concentration (IC50) result in series [1] is recorded as “Not Active”.
As to `CN1CC(=O)N/C1=N\C(=O)Nc1ccccc1`, in series [1] (read-out: IC50), the IC50 worked out at 4900 nM.
As for `CCCCCCNC(=O)NC1=NC(=O)CN1C`, the IC50 in series [1] (read-out: IC50) is over 10000 nM.
As to `CN1CC(=O)N=C1NC(=O)Nc1cc(Cl)cc(Cl)c1`, in series [1] (read-out: IC50), the IC50 was over 10000 nM.
Take `CC1C(=O)N=C(NC(=O)Nc2cccc(Cl)c2)N1C` (stereo not given): the IC50 in series [1] (read-out: IC50) is 490 nM; in series [2] it was 1300 nM.
In the case of `CN1CCC/C1=N\C(=O)Nc1cccc(Cl)c1`, the IC50 in series [1] (read-out: IC50) is 620 nM; in series [2], 2000 nM.
On to `Cc1cccc(NC(=O)NC2=NC(=O)C(c3ccccc3)N2C)c1` (stereo not given), for which the concentration for half-maximal inhibition (IC50) in series [1] (read-out: IC50) was 1400 nM; in series [2], over 10000 nM.
As for `Cc1cccnc1NC(=O)NC1=NC(=O)CN1C`, the IC50 in series [1] (read-out: IC50) was found to be 1900 nM.
`Cc1ccc(NC(=O)NC2=NC(=O)CN2C)nc1`: the IC50 in series [1] (read-out: IC50) amounted to 3100 nM.
Consider `CN1CC(=O)N=C1NC(=O)Nc1cccs1`, for which, in series [1] (read-out: IC50), the IC50 came to 4900 nM.
Same read-out and setting: for `CN1CC(=O)N=C1NC(=O)c1cccc(Cl)c1` the value was 2300 nM.
With `COC(=O)c1cccc(NC(=O)NC2=NC(=O)CN2C)c1`, in series [1] (read-out: IC50), the IC50 is over 10000 nM.
In the case of `CN1CC(=O)N=C1NC(=O)Nc1cccc(Cl)c1` [FENOBAM ANHYDROUS], the CL in the series filed under Rattus norvegicus and in the series filed under Homo sapiens was 50 µL/min/mg each time. Moreover, the values for the IC50 in series [1] (read-out: IC50) and in series [2] were 330 nM and 460 nM, respectively.
Regarding `Cc1cccc(C)c1NC(=O)/N=C1\CCCN1C` [XILOBAM], in series [1] (read-out: IC50), the IC50 was over 10000 nM.

One may read the IC50 as the midpoint of a concentration-inhibition curve.
